Experimental data: patent US20240327417A1, “HETEROCYCLIC COMPOUNDS” (BeiGene Switzerland GmbH, priority 2021, published 2024)

Key:
[1] = target: T1, Full length DGKζ (in-house protein M1-V929) (Homo sapiens, UniProt Q13574); experiment: Biochemical DGK IC50 assay (ADP-Glo, lipid micelle substrate), DGKζ; settings: 0.5 nM enzyme, 140 μM ATP, 80 μM DAG, 1 hour preincubation, 1 hour reaction, room temperature, read-out: IC50s for DGKζ
T1 construct: His (N); TEV cleavage site (N); made in house; host or cells: Sf9 insect cells (baculovirus, Bac-to-Bac)
T1 sequence (Q13574 1-929 isoform Q13574-4): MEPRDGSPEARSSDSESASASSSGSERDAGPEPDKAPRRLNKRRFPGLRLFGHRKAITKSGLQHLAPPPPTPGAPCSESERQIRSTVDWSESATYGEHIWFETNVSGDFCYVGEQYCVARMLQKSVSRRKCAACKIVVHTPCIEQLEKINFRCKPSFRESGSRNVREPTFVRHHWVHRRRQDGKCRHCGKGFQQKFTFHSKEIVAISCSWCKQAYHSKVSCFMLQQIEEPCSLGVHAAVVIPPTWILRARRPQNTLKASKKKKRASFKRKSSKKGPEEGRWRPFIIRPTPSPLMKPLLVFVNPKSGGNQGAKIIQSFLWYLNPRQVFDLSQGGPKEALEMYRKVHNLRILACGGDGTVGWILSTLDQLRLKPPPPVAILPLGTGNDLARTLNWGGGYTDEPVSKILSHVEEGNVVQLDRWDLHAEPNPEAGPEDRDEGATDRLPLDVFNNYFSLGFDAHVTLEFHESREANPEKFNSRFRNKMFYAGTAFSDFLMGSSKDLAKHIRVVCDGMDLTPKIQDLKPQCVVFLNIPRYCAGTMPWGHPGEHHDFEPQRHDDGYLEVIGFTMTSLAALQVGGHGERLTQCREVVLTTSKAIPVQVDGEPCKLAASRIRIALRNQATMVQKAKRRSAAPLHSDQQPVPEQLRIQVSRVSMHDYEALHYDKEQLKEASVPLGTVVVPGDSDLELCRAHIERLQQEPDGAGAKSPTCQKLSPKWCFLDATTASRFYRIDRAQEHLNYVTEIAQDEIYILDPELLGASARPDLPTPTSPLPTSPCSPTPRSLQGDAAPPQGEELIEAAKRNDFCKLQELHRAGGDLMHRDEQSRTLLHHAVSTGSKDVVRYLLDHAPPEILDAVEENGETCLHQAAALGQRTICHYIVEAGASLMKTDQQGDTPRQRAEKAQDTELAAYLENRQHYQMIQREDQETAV
Summary of the method: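 In-house full-length human DGKζ, baculovirus-expressed in Sf9 cells, was assayed with a DAG/PS lipid micelle substrate at room temperature. Buffer was 50 mM HEPES, 10 mM MgCl2, 0.01% BSA, 0.1 mM Na3VO4, 0.005% Tween-20, 0.01 mM CaCl2, with final compound 1.55˜10000 nM or 23.3˜150000 nM.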

[2] = target: T2, Full length DGKα (D21-10BG, SignalChem) (Homo sapiens, UniProt P23743); experiment: Biochemical DGK IC50 assay (ADP-Glo, lipid micelle substrate), DGKα; settings: 7.5 nM enzyme, 140 μM ATP, 80 μM DAG, 1 hour preincubation, 1 hour reaction, room temperature, read-out: IC50s for DGKα
T2 construct: Full length DGKα (D21-10BG, SignalChem); purchased SignalChem D21-10BG
T2 sequence (P23743 whole entry): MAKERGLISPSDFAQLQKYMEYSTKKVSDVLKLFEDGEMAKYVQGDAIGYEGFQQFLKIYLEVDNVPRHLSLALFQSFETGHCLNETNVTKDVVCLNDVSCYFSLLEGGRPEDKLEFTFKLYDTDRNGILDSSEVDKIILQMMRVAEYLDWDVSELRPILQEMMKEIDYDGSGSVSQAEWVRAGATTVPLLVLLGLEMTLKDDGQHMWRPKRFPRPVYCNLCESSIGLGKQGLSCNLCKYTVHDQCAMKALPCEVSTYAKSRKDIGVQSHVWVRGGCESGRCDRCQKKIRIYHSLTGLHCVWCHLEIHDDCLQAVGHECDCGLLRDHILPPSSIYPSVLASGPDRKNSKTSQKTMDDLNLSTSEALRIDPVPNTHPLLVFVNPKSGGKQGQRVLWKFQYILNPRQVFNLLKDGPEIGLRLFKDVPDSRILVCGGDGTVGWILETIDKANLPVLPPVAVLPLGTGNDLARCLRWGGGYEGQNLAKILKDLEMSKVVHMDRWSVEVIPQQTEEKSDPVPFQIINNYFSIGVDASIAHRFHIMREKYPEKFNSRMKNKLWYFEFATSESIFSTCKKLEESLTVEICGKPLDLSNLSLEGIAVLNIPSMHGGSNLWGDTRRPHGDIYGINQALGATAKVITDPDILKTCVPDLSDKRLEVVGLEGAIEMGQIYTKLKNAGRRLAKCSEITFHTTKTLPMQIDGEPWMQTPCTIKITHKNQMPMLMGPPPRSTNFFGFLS
Summary of the method: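 Full-length enzyme was assayed by ADP-Glo on DAG/PS lipid micelles at room temperature in HEPES/MgCl2/CaCl2 buffer with BSA, Na3VO4 and Tween-20, using a 1 h reaction and luminescence read-out.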

IC50 [1]	IC50 [2]	Structure (SMILES)
0.011 µM	0.112 µM	CC[C@@H]1CN(c2cc(=O)n(C)n3cc(CC#N)nc23)[C@@H](C)CN1C(C)c1ccc2cc(C)sc2n1 (stereo partly drawn) [Compound A87, 2-(8-((2S,5R)-5-ethyl-2-methyl-4-(1-(2-methylthieno[2,3-b]pyridin-6-yl)ethyl)piperazin-1-yl)-5-methyl-6-oxo-5,6-dihydroimidazo[1,2-b]pyridazin-2-yl)acetonitrile]
1.02 µM	1.53 µM	[2H]C([2H])([2H])C(c1ccc2nc(C)sc2c1)N1C[C@H](CC)N(c2cc(=O)n(C([2H])([2H])[2H])n3cc(CC#N)nc23)C[C@H]1CC (single isomer, unassigned) [Compound A95b]
0.024 µM	0.108 µM	[2H]C([2H])([2H])n1c(=O)cc(N2C[C@@H](CC)N(C(C)c3ccc4nc(C)sc4c3)C[C@@H]2CC)c2nc(CC#N)cn21 (single isomer, unassigned) [Compound A94a]
0.143 µM	0.05 µM	CC[C@H]1CN(C(C)c2ccc3nc(C)sc3n2)[C@H](C)CN1c1cc(=O)n(C)n2cc(CC#N)nc12 (single isomer, unassigned) [Compound A121b]
> 10 µM	2 µM	CC[C@H]1CN(C(C)c2ccc3nc(C)sc3n2)[C@H](CC)CN1c1cc(=O)n(C)n2cc(C=NOC)nc12 (single isomer, unassigned) [Compound A124a]
0.638 µM	0.659 µM	CC[C@H]1CN(C(C)c2ccc3nc(C)sc3c2)[C@H](CC)CN1c1cc(=O)n(C)n2cc(CC#N)nc12 (single isomer, unassigned) [Compound A56b]
2.93 µM	4.41 µM	CC[C@@H]1CN(c2cc(=O)n(C)n3cc(CC#N)nc23)[C@@H](C)CN1C(C)c1cc2sc(C)nc2cc1F (single isomer, unassigned) [Compound A60b]
1.17 µM	1.07 µM	CC[C@H]1CN(C(C)c2ccc3nc(CC4CC4)sc3n2)[C@H](CC)CN1c1cc(=O)n(C)n2cc(CC#N)nc12 (single isomer, unassigned) [Compound A110a]

Second part, the compound before the results:

Structure (SMILES)	IC50 [1]	IC50 [2]
CC[C@@H]1CN(c2cc(=O)n(C)n3cc(CC#N)nc23)[C@@H](C)CN1C(C)c1ccc(C(F)(F)F)cc1F (single isomer, unassigned) [Compound A17a]	0.108 µM	0.171 µM
CC[C@H]1CN(C(C)c2ccc3nccnc3c2)[C@H](CC)CN1c1cc(=O)n(C)n2cc(CC#N)nc12 (single isomer, unassigned) [Compound A14b]	0.358 µM	1.42 µM
CC[C@H]1CN(C(C)c2ccc3ncsc3c2)[C@H](CC)CN1c1cc(=O)n(C)n2cc(CC#N)nc12 (stereo partly drawn) [Compound A53, 2-(8-((2S,5R)-4-(1-(benzo[d]thiazol-6-yl)ethyl)-2,5-diethylpiperazin-1-yl)-5-methyl-6-oxo-5,6-dihydroimidazo[1,2-b]pyridazin-2-yl)acetonitrile]	0.0065 µM	0.024 µM
CC(c1ccc2ncc(Cl)nc2c1)N1C[C@H](C)N(c2cc(=O)n(C)n3cc(CC#N)nc23)C[C@H]1C (stereo partly drawn) [Compound A21, 2-(8-((2S,5R)-4-(1-(3-chloroquinoxalin-6-yl)ethyl)-2,5-dimethylpiperazin-1-yl)-5-methyl-6-oxo-5,6-dihydroimidazo[1,2-b]pyridazin-2-yl)acetonitrile]	0.027 µM	2.71 µM
CC[C@@H]1CN(c2cc(=O)n(C)n3cc(CC#N)nc23)[C@@H](C)CN1C(C)c1ccc(C2CC2)nc1 (single isomer, unassigned) [Compound A43a]	0.202 µM	0.285 µM
CC[C@H]1CN(C(C)c2ccc3nccnc3c2)[C@H](CC)CN1c1cc(=O)[nH]n2cc(CC#N)nc12 (stereo partly drawn) [Compound A15, 2-(8-((2S,5R)-2,5-diethyl-4-(1-(quinoxalin-6-yl)ethyl)piperazin-1-yl)-6-oxo-5,6-dihydroimidazo[1,2-b]pyridazin-2-yl)acetonitrile]	3.87 µM	4.38 µM
CC[C@H]1CN(C(C)c2ccc(C3CC3)nc2)[C@H](CC)CN1c1cc(=O)n(C)n2cc(CC#N)nc12 (single isomer, unassigned) [Compound A37b]	0.538 µM	0.26 µM
